Values quoted from earlier work, collected in paper PMC6952392, “A combined computational and experimental strategy identifies mutations conferring resistance to drugs targeting the BCR-ABL fusion protein” (Communications Biology, 2020).
Where two headings read alike, the source gives them in different places.

Legend:
[1] = safety window

COc1cc(Nc2c(C#N)cnc3cc(OCCCN4CCN(C)CC4)c(OC)cc23)c(Cl)cc1Cl [bosutinib]
in vitro inhibitory activity (BCR-ABL): sub-nanomolar range

Cc1cn(-c2cc(NC(=O)c3ccc(C)c(Nc4nccc(-c5cccnc5)n4)c3)cc(C(F)(F)F)c2)cn1 [nilotinib]
effective safe plasma concentration [1]: < 1500 ng/mL

Cc1ccc(C(=O)Nc2ccc(CN3CCN(C)CC3)c(C(F)(F)F)c2)cc1C#Cc1cnc2cccnn12 [ponatinib]
in vitro inhibitory activity (BCR-ABL; general statement, no reference given): sub-nanomolar range
